Experimental data as given in patent US10765114B2, “4-amino-6-(pyridyl and 2-substitutedphenyl)-picolinates and 6-amino-2-(pyridyl and 2-substitutedphenyl)-pyrimidine-4-carboxylates and their use as herbicides” (Dow AgroSciences LLC, priority 2013, dated 2020).

Legend:
Assay in all cases: Post-Emergent Test I
Format in all cases: in vivo
Conditions in all cases: postemergence
[1] = tested on: AMARE: redroot pigwseed (Amaranthus retroflexus)
Description: (§1) Post-Emergent Test I Seeds test species were obtained from commercial suppliers and planted into a 13 centimeter (cm) diameter-round pot containing soil-less media mix (Metro-Mix 360®, Sun Gro Horticulture). Postemergence treatments were planted 8-12 days prior to application and cultured in a greenhouse equipped with supplemental light sources to provide a 16 hour (h) photoperiod at 24-29° C. All pots were surface irrigated.
(§2) A weighted amount, determined by the highest rate to be tested, of each compound was dissolved in 1.3 mL acetone-dimethyl sulfoxide (DMSO; 97:3, volume per volume (v/v)) and diluted with 4.1 mL water-isopropanol-crop oil concentrate (78:20:2, v/v/v) containing 0.02% Triton X-155 to obtain concentrated stock solutions. Additional application rates were obtained by serial dilution of the high rate solution into a solution containing appropriate volume of 97:3 v/v mixture of acetone and DMSO and appropriate volume of an aqueous mixture of water, isopropyl alcohol, crop oil concentrate (78:20:2, v/v/v) containing 0.02% Triton X-155.
(§3) Formulated compounds were applied using a DeVilbiss® compressed air sprayer at 2-4 pounds per square inch (psi). Following treatment, pots were returned to the greenhouse for the duration of the experiment. All pots were sub-irrigated as need to provide optimum growing conditions. All pots were fertilized one time per week by subirrigating with Peters Peat-Lite Special® fertilizer (20-10-20).
(§4) All evaluations were made visually on a scale of 0 to 100 where 0 represents no activity and 100 represents complete plant death and presented as indicated in Table A. Visual assessments of plant injury were made based on growth reduction, discoloration, leaf deformity and necrosis

[2] = tested on: AVEFA: wild oats (Avena fatua)
Description: as §1, §2, §3, §4

[3] = tested on: ECHSS (ECHCG: barnyardgrass (Echinochloa crus-galli))
Description: as §1, §2, §3, §4

[4] = tested on: HELAN: sunflower (Helianthus annuus)
Description: as §1, §2, §3, §4

[5] = tested on: IPOSS (IPOHE: ivyleaf morningglory (Ipomoea hederecea))
Description: as §1, §2, §3, §4

[6] = tested on: SETFA: giant foxtail (Setaria faberi)
Description: as §1, §2, §3, §4

Compound	Visual Growth Reduction (%) 14 Days After Application, AMARE ([1]; 3.8 kg ai/ha)	Visual Growth Reduction (%) 14 Days After Application, AVEFA ([2]; 3.8 kg ai/ha)	Visual Growth Reduction (%) 14 Days After Application, ECHSS ([3]; 3.8 kg ai/ha)	Visual Growth Reduction (%) 14 Days After Application, HELAN ([4]; 3.8 kg ai/ha)	Visual Growth Reduction (%) 14 Days After Application, IPOSS ([5]; 3.8 kg ai/ha)	Visual Growth Reduction (%) After Application, SETFA ([6]; 3.8 kg ai/ha)	Visual Growth Reduction (%) 14 Days After Application, AMARE ([1]; 4 kg ai/ha)	Visual Growth Reduction (%) 14 Days After Application, AVEFA ([2]; 4 kg ai/ha)	Visual Growth Reduction (%) 14 Days After Application, ECHSS ([3]; 4 kg ai/ha)	Visual Growth Reduction (%) 14 Days After Application, HELAN ([4]; 4 kg ai/ha)	Visual Growth Reduction (%) 14 Days After Application, IPOSS ([5]; 4 kg ai/ha)	Visual Growth Reduction (%) After Application, SETFA ([6]; 4 kg ai/ha)
COC(=O)c1nc(-c2ccc(Cl)nc2F)cc(N)c1Cl [Compound 17, methyl 4-amino-5,6′-dichloro-2′-fluoro-[2,3′-bipyridine]-6-carboxylate]	C (75-84)	F (30-44)	F (30-44)	A (95-100)	A (95-100)	B (85-94)						
COC(=O)c1nc(-c2ccc(C(F)(F)F)nc2)cc(N)c1Cl [Compound 4]							A (95-100)	B (85-94)	C (75-84)	A (95-100)	A (95-100)	A (95-100)
